This is an account of results in patent US11529422B2, “Polymer linkers and their uses” (priority 2016, dated 2022).

The subject of one assay is NCI-N87 cells. Kind of assay: Cell Viability Assay (CellTiter-Glo), NCI-N87. It is filed as cell-based. (In general: In ATP-based viability assays light output follows the ATP content of the culture.)
The subject of another assay is MCF7 breast cancer cell. Kind of assay: Cell Viability Assay (CellTiter-Glo), MCF7. It is filed as cell-based. The note with it: MCF7, Table 2 (another assay).
For assay [1], the system named is HER2 expressing cancer cell lines. The settings on record: for activity compared with free Auristatin F, in words: summary of Table 1. Here is the method:
Three HER2 expressing breast cancer cell lines (BT474, HCC1954 and SK-BR-3) and HER2 expressing gastric cancer cell line NCI-N87 were used in the viability assay. The cells were placed in opaque-walled 96-well plate and allowed to adhere overnight at 37° C. in 5% CO2 and 95% humidity atmosphere. Cell density per well: 7000 (BT474), 3000 (HCC1954), 5000 (NCI-N87), 4000 (SK-BR-3). The test compounds or conjugates were added to experimental wells, and incubate at 37° C. in 5% CO2 and 95% humidity atmosphere for 72 hours. The plates were equilibrated at room temperature for 30 min. CellTiter-Glo® reagent equal to the volume of cell culture medium present in each well was added. After cell lysis on an orbital shaker for 2 min, the plate was incubated at room temperature for 10 min. Luminescence were recorded using EnVision® Multilabel Reader (PerkinElmer, 2104-0010A). GraphPad Prism 5.0 was used to analyze the data. The dose response curves were determined, and the IC50 value was calculated.
Another assay measured the IC50 values for compounds 24 and 25 on the same cell lines and MCF7 breast cancer cell.

Another assay has as its system SK-BR-3 cells. The assay can be described thus: Cell Viability Assay (CellTiter-Glo), SK-BR-3. It is filed as cell-based.
The subject of a further assay is HCC1954 cells. The assay can be described thus: Cell Viability Assay (CellTiter-Glo), HCC1954. It is filed as cell-based.
The test system of the next assay is BT-474 cells. The assay can be described thus: Cell Viability Assay (CellTiter-Glo), BT-474. It is filed as cell-based.
The mark [2] stands for this setting: NCI-N87, Table 2 (another assay).
Setting [3] is: SK-BR-3, Table 2 (another assay).
Where [4] appears, read: HCC1954, Table 2 (another assay).
[5] abbreviates: BT-474, Table 2 (another assay).

Where a SMILES comes first, the peptide text is derived from it. [ ]: non-standard residue; d: D form. The star is where a group is joined. Dolaproine = CO[C@@H]([C@@H]1CCCN1)[C@@H](C)C(=O)O; Dil = CC[C@H](C)[C@H](NC)[C@@H](CC(=O)O)OC; NMe2Val = CC(C)[C@@H](C(=O)*)N(C)C

Description for BT-474 cells: (§1) Compounds and conjugates were tested for their activity using the Cell Viability Assay (CellTiter-Glo® Luminescent Cell Viability Assay from Promega), which measures the number of viable cells in culture after treatment with the inventive compounds or conjugates for 72 hours based on quantitation of the ATP present (Cell Viability. IC50).
Description for HCC1954 cells: as §1
Description for MCF7 breast cancer cell: as §1
Description for NCI-N87 cells: as §1
Description for SK-BR-3 cells: as §1

By IC50 is commonly meant the midpoint of a concentration-inhibition curve. The low end stands for greater potency, the high end for weaker potency. Consider “poly(1-hydroxymethylethylene hydroxy-methyl formal)-SPA-(auristatin F 2-(2-hydroxy-ethoxy)-ethylamide L-Alanine)-Trastuzumab [Compound 25]”, for which the IC50 in the assay with NCI-N87 cells (setting [2]) was determined as 0.3 nM; in the assay on MCF7 breast cancer cell it was 3.3 nM; with SK-BR-3 cells (setting [3]), 0.1 nM; in the assay with HCC1954 cells (setting [4]), 0.2 nM; in the assay on BT-474 cells (setting [5]), 0.4 nM. In assay [1] (summary of Table 2, same cell lines and MCF7), the “activity compared with compound 24 and controls, in words” value was “significant increase in activity as compared to compound 24”.

Take “poly(1-hydroxymethylethylene hydroxy-methyl formal)-SPA-(auristatin F 2-(2-hydroxy-ethoxy)-ethylamide L-Alanine)-Trastuzumab [Compound 17]”: the IC50 was under 0.05 nM in the assay with NCI-N87 cells (NCI-N87, 72 hours, Table 1); under 0.05 nM in the assay on SK-BR-3 cells (SK-BR-3, 72 hours, Table 1); under 0.05 nM in the assay with HCC1954 cells (HCC1954, 72 hours, Table 1); under 0.05 nM with BT-474 cells (BT-474, 72 hours, Table 1). Also, in assay [1], the “activity compared with free Auristatin F, in words” value is recorded as “inhibition of HER2 increases significantly”.

As to “poly(1-hydroxymethylethylene hydroxy-methyl formal)-SPA-(auristatin F 2-(2-hydroxy-ethoxy)-ethylamide L-Alanine)-(Trastuzumab-MCC) [Compound 16]”, the IC50 amounted to 55.6 nM in the assay on NCI-N87 cells (NCI-N87, 72 hours, Table 1); 22 nM in the assay with SK-BR-3 cells (SK-BR-3, 72 hours, Table 1); 0.13 nM with HCC1954 cells (HCC1954, 72 hours, Table 1); 0.39 nM in the assay on BT-474 cells (BT-474, 72 hours, Table 1). Besides, the “activity compared with free Auristatin F, in words” value in assay [1] is “inhibition of HER2 increases significantly”.

`N.N.[Cl][Pt][Cl]` [Cisplatin, reference compound]: the IC50 came out at 4560 nM in the assay with NCI-N87 cells (NCI-N87, 72 hours, Table 1); 1660 nM in the assay on NCI-N87 cells (setting [2]); 9150 nM with MCF7 breast cancer cell; 1920 nM in the assay on SK-BR-3 cells (SK-BR-3, 72 hours, Table 1); 871 nM with SK-BR-3 cells (setting [3]); 6050 nM in the assay on HCC1954 cells (HCC1954, 72 hours, Table 1). Further, the IC50 in the assay on HCC1954 cells (setting [4]) is 6230 nM; in the assay with BT-474 cells (BT-474, 72 hours, Table 1), over 100000 nM; with BT-474 cells (setting [5]), 38500 nM.

As for `CC[C@H](C)[C@@H]([C@@H](CC(=O)N1CCC[C@H]1[C@H](OC)[C@@H](C)C(=O)N[C@@H](Cc1ccccc1)C(=O)O)OC)N(C)C(=O)[C@@H](NC(=O)[C@H](C(C)C)N(C)C)C(C)C` [Auristatin F, reference compound] (NMe2Val-V[Dil][Dolaproine]F-OH), the IC50 with NCI-N87 cells (NCI-N87, 72 hours, Table 1) turned out to be 69.8 nM; in the assay with NCI-N87 cells (setting [2]), 386 nM; with MCF7 breast cancer cell, 1950 nM; with SK-BR-3 cells (SK-BR-3, 72 hours, Table 1), 51 nM; with SK-BR-3 cells (setting [3]), 233 nM; with HCC1954 cells (HCC1954, 72 hours, Table 1), 38.2 nM. In addition, the IC50 in the assay with HCC1954 cells (setting [4]) stood at 200 nM; in the assay on BT-474 cells (BT-474, 72 hours, Table 1) it was 264 nM; in the assay on BT-474 cells (setting [5]), 1540 nM.

As to “poly(1-hydroxymethylethylene hydroxy-methyl formal)-SPA-(auristatin F 2-(2-hydroxy-ethoxy)-ethylamide L-Alanine)-maleimide [Compound 24]”, the IC50 in the assay with NCI-N87 cells (setting [2]) came out at 91.5 nM; with MCF7 breast cancer cell, 230 nM; in the assay on SK-BR-3 cells (setting [3]) it was 56.6 nM; in the assay on HCC1954 cells (setting [4]), 45.9 nM; in the assay with BT-474 cells (setting [5]) it was 58 nM.

As for “poly(1-hydroxymethylethylene hydroxy-methyl formal)-SPA-(auristatin F 2-(2-hydroxy-ethoxy)-ethylamide L-Alanine)-SSPy [Compound 15]”, the IC50 in the assay with NCI-N87 cells (NCI-N87, 72 hours, Table 1) is over 500 nM; in the assay on SK-BR-3 cells (SK-BR-3, 72 hours, Table 1), 37 nM; with HCC1954 cells (HCC1954, 72 hours, Table 1), 23.9 nM; with BT-474 cells (BT-474, 72 hours, Table 1) it was 57.4 nM. Besides, in assay [1], the “activity compared with free Auristatin F, in words” value is given as “activity similar to free Auristatin F”.

On to “poly(1-hydroxymethylethylene hydroxy-methyl formal)-SPA-(auristatin F 2-(2-hydroxy-ethoxy)-ethylamide L-Alanine)-maleimide [Compound 14]”, for which the IC50 was over 500 nM in the assay on NCI-N87 cells (NCI-N87, 72 hours, Table 1); 48 nM in the assay with SK-BR-3 cells (SK-BR-3, 72 hours, Table 1); 32.2 nM with HCC1954 cells (HCC1954, 72 hours, Table 1); 87.9 nM in the assay with BT-474 cells (BT-474, 72 hours, Table 1). Further, the “activity compared with free Auristatin F, in words” value in assay [1] is recorded as “activity similar to free Auristatin F”.
